Reference: ChEMBL document CHEMBL1201862, “PubChem BioAssay data set” (2004)
Activity calls are given as the source filed them.

How the values were obtained:
[1] = cells; assay type: functional, cell-based
[2] = cells; assay type: functional, cell-based; remark: listed apart in the source
[3] = target: T1, Protein skinhead-1 (Caenorhabditis elegans, UniProt P34707); assay type: functional
T1 sequence (P34707 whole entry): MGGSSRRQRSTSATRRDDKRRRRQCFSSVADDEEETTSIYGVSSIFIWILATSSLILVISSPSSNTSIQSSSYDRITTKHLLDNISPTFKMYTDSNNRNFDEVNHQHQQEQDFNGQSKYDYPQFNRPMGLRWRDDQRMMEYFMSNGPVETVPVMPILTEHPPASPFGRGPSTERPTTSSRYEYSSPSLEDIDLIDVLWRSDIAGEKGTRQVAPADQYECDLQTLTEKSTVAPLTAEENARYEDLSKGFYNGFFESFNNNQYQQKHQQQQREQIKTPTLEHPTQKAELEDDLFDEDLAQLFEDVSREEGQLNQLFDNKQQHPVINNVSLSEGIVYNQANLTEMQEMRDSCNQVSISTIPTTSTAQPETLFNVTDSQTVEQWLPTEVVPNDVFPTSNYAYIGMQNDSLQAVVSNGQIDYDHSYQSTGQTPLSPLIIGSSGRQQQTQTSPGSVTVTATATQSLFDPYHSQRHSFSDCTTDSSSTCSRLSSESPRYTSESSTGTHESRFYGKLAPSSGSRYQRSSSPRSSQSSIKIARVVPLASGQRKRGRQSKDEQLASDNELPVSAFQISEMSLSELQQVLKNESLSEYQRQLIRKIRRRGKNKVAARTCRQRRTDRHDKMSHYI

[4] = growth suppression of beta-catenin-knockout colon cells, dose response, cell-based, HCT116, human colon tumor (AID 1045); assay type: functional;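 also: HCT116 colon tumor cells with beta catenin knocked out; cells exposed to compound for 60 hours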
[5] = target: T2, Streptokinase A (Streptococcus pyogenes serotype M1, UniProt P10520); test: S. pyogenes streptokinase expression inhibitors, potency, dose response, plasminogen activation absorbance, OD405 (AID 1914); assay type: functional, Streptococcus pyogenes M1 GAS;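 also: secreted streptokinase activity via plasminogen activation per viability signal from cell pellet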
T2 sequence (P10520 whole entry): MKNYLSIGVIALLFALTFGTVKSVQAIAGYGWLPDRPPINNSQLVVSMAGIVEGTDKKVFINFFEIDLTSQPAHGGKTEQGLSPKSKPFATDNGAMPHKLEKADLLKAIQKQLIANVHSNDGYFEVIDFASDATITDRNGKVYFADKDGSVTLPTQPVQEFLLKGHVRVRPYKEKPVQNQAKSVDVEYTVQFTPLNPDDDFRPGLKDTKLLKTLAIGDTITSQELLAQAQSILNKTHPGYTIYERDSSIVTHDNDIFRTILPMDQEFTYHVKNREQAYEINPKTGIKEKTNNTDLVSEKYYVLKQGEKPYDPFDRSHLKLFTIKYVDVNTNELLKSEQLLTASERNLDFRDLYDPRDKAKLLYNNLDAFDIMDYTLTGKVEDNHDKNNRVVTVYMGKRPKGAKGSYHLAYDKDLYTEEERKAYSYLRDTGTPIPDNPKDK

[6] = tested on: INS1; test: beta cell apoptosis inhibitors, cytokine rescue, dose response, luminescence, retest (AID 449756); assay type: functional, cell-based; conditions: Rattus norvegicus;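 also: cell death triggered by IL-1 beta plus TNF-alpha plus IFN-gamma mixture; protective hits raise ATP signal compared with cytokine alone wells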
[7] = tested on: Streptococcus sp. 'group A'; test: growth inhibition of control SK(-) GAS strain, dose response, counter-screen for streptokinase expression inhibitor project, luminescence, kanamycin, BacTiterGlo, confirmation (AID 1900); assay type: functional, organism-based
[8] = growth suppression of PTEN-null colon cells, dose response, cell-based, HCT116 PTEN knockout (AID 1047); assay type: functional;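 also: HCT116 colon tumor cells with PTEN knocked out; cells exposed to compound for 60 hours before readout; potency for loss of cell viability measured by luminescence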
[9] = tested on: Streptococcus; test: Group A Streptococcus viability loss, dose response, counter-screen for streptokinase expression inhibitor project, luminescence, BacTiterGlo (AID 1915); assay type: functional, organism-based;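 also: potency for reduction of bacterial viability or growth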
[10] = target: T3, High affinity choline transporter 1 (Homo sapiens, UniProt Q9GZV3); test: CHT inhibitors, dose response, cell-based, 5-point CRC, membrane potential dye (AID 504840); assay type: functional
T3 sequence (Q9GZV3 whole entry): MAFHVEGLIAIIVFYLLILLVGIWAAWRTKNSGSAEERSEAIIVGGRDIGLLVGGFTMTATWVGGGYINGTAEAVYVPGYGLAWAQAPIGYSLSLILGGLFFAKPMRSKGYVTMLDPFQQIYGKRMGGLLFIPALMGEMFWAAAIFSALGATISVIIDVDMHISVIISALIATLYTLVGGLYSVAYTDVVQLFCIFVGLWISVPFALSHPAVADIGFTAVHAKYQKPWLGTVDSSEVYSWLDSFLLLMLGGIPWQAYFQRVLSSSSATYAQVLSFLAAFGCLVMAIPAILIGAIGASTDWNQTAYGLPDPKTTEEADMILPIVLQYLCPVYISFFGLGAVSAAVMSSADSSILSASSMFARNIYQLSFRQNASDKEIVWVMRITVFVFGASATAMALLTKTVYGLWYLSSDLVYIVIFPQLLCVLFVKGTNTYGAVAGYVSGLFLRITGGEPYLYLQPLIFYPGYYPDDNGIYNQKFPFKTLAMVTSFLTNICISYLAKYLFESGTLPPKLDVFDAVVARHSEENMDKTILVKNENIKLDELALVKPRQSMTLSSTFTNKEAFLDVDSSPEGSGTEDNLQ

[11] = microbe, parasite or virus in culture; assay type: functional; conditions: Mycobacterium tuberculosis
[12] = target: FAD-linked sulfhydryl oxidase ALR (Homo sapiens, UniProt P55789); test: inhibitors of human ALR sulfhydryl oxidase, dose response, biochemical, H2O2 detection, luminescence, cherry-pick (AID 493248)
[13] = inhibitors of intracellular T. cruzi replication, confirmation, NIH3T3 host cells, beta-gal luminescence (AID 2044); assay type: functional, cell-based;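 also: intracellular parasites grown in NIH/3T3 mouse fibroblasts as host cells; luminescent beta-galactosidase reporter signal from transgenic T. cruzi replicating inside host cells; inhibitors lower the luminescence signal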
[14] = Luminescence Cell-Based Dose Retest to Confirm Inhibitors of Cancer Stem Cells. [Related pubchem assays (depositor defined):AID2717, AID2721]; assay type: functional; conditions: Homo sapiens
[15] = cytotoxicity toward NIH3T3 fibroblasts, dose response, counter-screen, cell-based, ATP luminescence, mouse fibroblasts (AID 2010); assay type: functional;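 also: cells exposed to compound for about 90 hours before reading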
[16] = control 3'UTR Renilla luciferase suppression, dose response, counter-screen for Shn3 inhibitor project, cell-based, Clone20-Shn3RL, cherry-picked (AID 624133); assay type: functional
[17] = Shn3 3'UTR reporter inhibitors, dose response, cell-based, Clone20 osteoblasts, firefly luciferase, cherry-picked (AID 624132); assay type: functional;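 also: firefly luciferase luminescence from reporter carrying the Shn3 3'UTR in osteoblasts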
[18] = target: T4, Polyadenylate-binding protein 1 (Homo sapiens, UniProt P11940); test: PABP1 MLLE–PAM2 binding inhibitor potency, dose response, biochemical, fluorescence polarization, FITC-PAM2 peptide (AID 602259); assay type: functional; conditions: read-out: IC50_Mean
[19] = target: T4, Polyadenylate-binding protein 1; test: PABP1 MLLE–PAM2 interaction inhibitors, dose response, miRNA deadenylation inhibitor project, biochemical, fluorescence polarization, Cy5-PAM2 peptide, secondary (AID 602260); assay type: functional; conditions: read-out: IC50_Mean

Sequence of FAD-linked sulfhydryl oxidase ALR (P55789 whole entry): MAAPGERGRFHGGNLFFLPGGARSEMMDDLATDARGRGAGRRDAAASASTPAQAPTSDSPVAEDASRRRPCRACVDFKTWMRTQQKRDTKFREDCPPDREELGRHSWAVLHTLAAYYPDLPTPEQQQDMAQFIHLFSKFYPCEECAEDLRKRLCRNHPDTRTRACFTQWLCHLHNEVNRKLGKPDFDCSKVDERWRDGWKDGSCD
T4 sequence (P11940 whole entry): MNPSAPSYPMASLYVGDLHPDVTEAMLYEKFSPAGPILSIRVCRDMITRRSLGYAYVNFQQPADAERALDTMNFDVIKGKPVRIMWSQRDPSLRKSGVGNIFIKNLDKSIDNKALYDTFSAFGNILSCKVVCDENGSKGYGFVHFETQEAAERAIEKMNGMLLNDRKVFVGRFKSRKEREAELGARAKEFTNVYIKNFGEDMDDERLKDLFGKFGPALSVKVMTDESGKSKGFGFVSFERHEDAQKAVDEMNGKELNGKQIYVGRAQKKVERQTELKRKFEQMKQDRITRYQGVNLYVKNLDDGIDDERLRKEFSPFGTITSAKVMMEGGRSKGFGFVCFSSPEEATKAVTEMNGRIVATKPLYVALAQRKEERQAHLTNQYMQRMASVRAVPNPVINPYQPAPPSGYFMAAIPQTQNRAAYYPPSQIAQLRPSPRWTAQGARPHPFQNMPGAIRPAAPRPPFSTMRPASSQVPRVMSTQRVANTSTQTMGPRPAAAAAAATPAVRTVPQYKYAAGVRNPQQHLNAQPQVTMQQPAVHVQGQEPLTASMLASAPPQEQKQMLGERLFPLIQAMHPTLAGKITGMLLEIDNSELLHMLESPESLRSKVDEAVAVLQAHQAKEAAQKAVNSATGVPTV

With `O=C(NC1=NCCS1)c1cccc(NC(=O)c2ccco2)c1` the EC50 [1] was > 350 µM (not active) and the EC50 [2] was > 350 µM (not active).

With `Fc1ccccc1CSc1ccc(-c2ccco2)nn1` the IC50 [3] was 64.6 µM (inactive).

For `c1ccc2c(c1)ncn2CCCOc1ccc2c(c1)CCC2`, the EC50 [4] was 21.6 µM (active), the EC50 [5] was > 150 µM (not active) and the AC50 [6] was 7.64 µM (active). For the same compound, the EC50 [7] was 22.4 µM (active), the EC50 [8] was 30.5 µM (active) and the EC50 [9] was > 150 µM (not active).

With `CCCCOC(=O)c1ccc(NC(=O)/C=C/c2cccs2)cc1` the IC50 [3] was > 100 µM (inactive).

In the case of `CCn1c(SCc2nc(-c3ccccc3)no2)nnc1-c1ccco1`, the IC50 [10] is reported as 13.6 µM (active).

For `CN=C(S)N=CNOCc1c(Cl)cccc1Cl`, the CC50 [11] was > 40 µM (active).

With `Cc1ccc(Oc2ncc(CN3CC(C)OC(C)C3)s2)cc1` (configuration not stated) the EC50 [1] was > 350 µM (not active) and the EC50 [2] was > 350 µM (not active).

For `Cc1ccc(NC2CCCN(C(=O)c3ccc(C)c(N4CCNC4=O)c3)C2)cc1C` (configuration not stated), the AC50 [12] was 3.32 µM (active).

For `S=C(Nc1ccc(Cl)cc1)NC1CC2CCC(C1)N2Cc1ccccc1` (configuration not stated), the CC50 [11] was > 40 µM (active).

For `CC#CCN(CC#CC)S(=O)(=O)c1ccc(-n2cnnn2)c(OC)c1`, the IC50 [10] was 3.16 µM (active).

With `Cc1cccc(OCCNc2cc(N3CCN(C)CC3)ccc2[N+](=O)[O-])c1` the EC50 [13] was 0.495 µM (active), the AC50 [14] was 1.47 µM (active) and the EC50 [4] was 86.1 µM (active). For the same compound, the EC50 [15] was > 60 µM (not active) and the EC50 [8] was 19.8 µM (active).

With `CCCCC(=O)OCC(=O)N1N=C(c2c[nH]c3ccccc23)C(O)C1c1ccc(OC)cc1` (configuration not stated) the CC50 [11] was > 40 µM (active).

In the case of `Cc1cccc(/C=N/n2c(S)nnc2-c2ccccc2)c1O`, the AC50 [12] is reported as 3.82 µM (active).

With `C[C@H]1CCC/C=C/[C@@H]2C[C@H](O)C[C@H]2[C@@H](O)/C=C/C(=O)O1` the AC50 [16] was 1.7 µM (active) and the AC50 [17] was 2.17 µM (active).

In the case of `O=C(NC1=NCCS1)c1csc2ccccc12`, the IC50 [18] is reported as > 66 µM (inactive), the AC50 [12] is reported as 0.582 µM (active) and the IC50 [19] is reported as > 66 µM (inactive).

With `COc1cc(C(=O)c2ccccc2)c(OC)cc1C(=O)Nc1ccc(O)cc1` the AC50 [12] was 0.039 µM (active).

In the case of `CCCc1cc(O)c2c(C)cc(=O)oc2c1`, the IC50 [10] is reported as 14.5 µM (active).

With `CCCS(=O)(=O)N1CCC(C(=O)NCc2cccnc2)CC1` the IC50 [3] was > 100 µM (inactive).
